Data on 98 compounds can be found in ChEMBL document CHEMBL3507680, “University of Dundee, Gates Library screen for HepG2 cell viability”.

A short description of the data set: Human HepG2 cell viability assay in 384 well format. It counts as toxicity, cell-based. Set-up: dose 125 nL, time 70.5 hour; concentration not given beside the values. The conditions noted are these: HepG2 cells, read-out: Inhibition.
On to `Cn1ccc(C(=O)N2CCC[C@]3(C[C@@H](OCc4ccccn4)CO3)C2)n1`, for which the cytotoxicity at 70.5 h is -12.2%.

For the compound `CCC(NC(=O)NCc1cc(Cl)ccc1OC)c1noc(C)n1` (stereo not drawn), the cytotoxicity at 70.5 h stood at 16%.

With `O=C(Nc1nncs1)NC1CCCc2c1cnn2CCO` (stereo not drawn), the cytotoxicity at 70.5 h turned out to be 4.56%.

Take `COc1ccc(C2C3=C(CCCC3=O)Nc3nc(SC)nc(N)c32)cc1` (stereo not drawn): the cytotoxicity at 70.5 h was 6.58%.

For `O=C1[C@@H]2CN(c3ncnc4[nH]ccc34)C[C@]2(C(=O)O)CN1CC1CC1`, the cytotoxicity at 70.5 h is -9.8%.

For the compound `COc1cccc(-c2nc(C)c(C(=O)N[C@@H](CCSC)C(=O)O)s2)c1`, the cytotoxicity at 70.5 h is -21.7%.

`CCOC(=O)C1(CCOC)CCCN(Cc2nccn2CC)C1` (stereo not drawn): the cytotoxicity at 70.5 h was -18.3%.

For the compound `OCC(CO)N1CCCC(Cc2cnc(Nc3ccccn3)cn2)C1` (stereo not drawn), the cytotoxicity at 70.5 h was -3.34%.

With `COc1ccccc1S(=O)(=O)CCOC(C)C`, the cytotoxicity at 70.5 h was -3.27%.

In the case of `O=C(NC1CCN(c2ncccc2F)C1)c1cccc(-n2ccnc2)c1` (stereo not drawn), the cytotoxicity at 70.5 h was -9.37%.

With `O=C(CN1CCC(N2CCNC2=O)CC1)NCC(F)(F)F`, the cytotoxicity at 70.5 h was -11.3%.

Take `CCN(CC)C(=O)CCNC(=O)c1ccccc1N1CCOCC1`: the cytotoxicity at 70.5 h came out at 23.2%.

On to `COc1ccc(Oc2ccc(CNC(=O)C3CCS(=O)(=O)C3)cn2)cc1` (stereo not drawn), for which the cytotoxicity at 70.5 h was -6.05%.

With `N[C@@H](Cc1ccccc1)c1nnc(S(=O)(=O)Cc2cccc(Cl)c2)o1`, the cytotoxicity at 70.5 h amounted to 13.5%.

As for `COc1cccc(CCC2CCCN(C(=O)c3ccc(=O)n(C)n3)C2)c1` (stereo not drawn), the cytotoxicity at 70.5 h was -6.31%.

Take `O=C(Nc1nnn[nH]1)c1ccc(-n2cccc2)c(F)c1`: the cytotoxicity at 70.5 h was -9.42%.

`O=C(Cc1ccsc1)N1CCC(Cn2cc(CCO)nn2)CC1`: the cytotoxicity at 70.5 h was -14.1%.

For `CC(CN1CCOCC1)NC(=O)N(C)Cc1ccc(Cl)s1` (stereo not drawn), the cytotoxicity at 70.5 h is -2.73%.

With `COc1cc(N2C[C@H]3CCC[C@@H](CN(C)C)[C@H]3C2)ncn1`, the cytotoxicity at 70.5 h is -10.1%.

In the case of `CCCN(C)C(=O)c1cc(Br)cc(S(=O)(=O)N2CCOCC2)c1F`, the cytotoxicity at 70.5 h turned out to be 6.3%.

Turning to `CNC(=O)[C@@]12CCCN(c3ncccn3)[C@@H]1CN(C(=O)NC(C)C)C2`, the cytotoxicity at 70.5 h is 34.2%.

Consider `Cc1cccc(CN2CCOC3(CCCN(CC(=O)N(C)C)C3)C2)n1` (stereo not drawn), for which the cytotoxicity at 70.5 h was -5.53%.

With `COCC1CN(Cc2cc(C)on2)Cc2cn(C)nc21` (stereo not drawn), the cytotoxicity at 70.5 h stood at 3.15%.

`CC1(c2[nH]ncc2C(N)=O)CCN(c2ncccn2)CC1`: the cytotoxicity at 70.5 h amounted to 17.1%.

On to `COC(=O)C(NC(=O)COC1CCCC1)c1cc(F)ccc1F` (stereo not drawn), for which the cytotoxicity at 70.5 h is -11.6%.

With `Cc1noc(C(C)N(C)Cc2ccco2)n1` (stereo not drawn), the cytotoxicity at 70.5 h is -6.09%.

For `O=c1[nH]nc2c(N3CCOCC3)nccn12`, the cytotoxicity at 70.5 h was -11.6%.

As for `CC(=O)N1CCN(C(=O)Cc2cnc(-c3c(Cl)cccc3Cl)s2)CC1`, the cytotoxicity at 70.5 h was -13.6%.

With `Cc1nc(C2CCCN(C(=O)c3ccoc3)C2)no1` (stereo not drawn), the cytotoxicity at 70.5 h is -7%.

As for `Cc1nc(CN2CCCC3(CCN(c4cnn(C)c4)C3=O)C2)cs1` (stereo not drawn), the cytotoxicity at 70.5 h was -11.6%.

`COc1cc(CN(C)C(=O)NCC(=O)NC(C)C)ccc1SC`: the cytotoxicity at 70.5 h was -1.54%.

For the compound `O=S(=O)(NC1CCC2(CC1)OCCO2)c1ccccc1Br`, the cytotoxicity at 70.5 h is -1.96%.

As for `O[C@@H]1CCN(CC2CCOC2)[C@H]1Cc1ccccc1` (stereo partly drawn), the cytotoxicity at 70.5 h was -3.68%.

Consider `O=C(CN1C(=O)CCNC1=O)N1CCC2(CCc3ccccc32)CC1`, for which the cytotoxicity at 70.5 h came to 16.2%.

For the compound `COc1ccc(CN2CCCCCC2c2cccs2)c(OC)c1` (stereo not drawn), the cytotoxicity at 70.5 h is -8.21%.

Consider `O=C(c1ccncc1)N1CCC(Oc2cccc(C(F)(F)F)c2)CC1`, for which the cytotoxicity at 70.5 h was -5.79%.

Turning to `Cc1ccc([C@]2(O)CC[C@H]3CN(Cc4cccc(F)c4F)C[C@H]32)nc1`, the cytotoxicity at 70.5 h was 5.11%.

Regarding `CCN(C)C(=O)CN1CCC(c2cc(N3CCOCC3)nc(C)n2)CC1`, the cytotoxicity at 70.5 h is -6.04%.

Consider `CCn1cc(CN2CCC(NS(C)(=O)=O)CC2)cc1C#N`, for which the cytotoxicity at 70.5 h was -3.22%.

As for `C=Cn1ncc(CN2C[C@@H]3CCCN3C[C@@H]2CCSC)c1C`, the cytotoxicity at 70.5 h is -6.32%.

Regarding `COCC(C)NC(=O)c1sccc1-n1cnnn1` (stereo not drawn), the cytotoxicity at 70.5 h was -2.58%.

With `COCc1cc(CNC(=O)c2c(C)c(C)cc(C)c2C)n[nH]1`, the cytotoxicity at 70.5 h is -4.32%.

For `CCCc1cnc(C)nc1N1CCC(Cn2cc(CN(C)C)nn2)CC1`, the cytotoxicity at 70.5 h was -6.13%.

As for `Cc1ccc(S(=O)(=O)N2C[C@H]3C[C@H](NC(=O)c4ccn(C)n4)[C@H]3C2)cc1`, the cytotoxicity at 70.5 h is 1.44%.

On to `Cc1nc(C(C)C)sc1C(C)N(C)C(=O)c1ccc(=O)n(C)n1` (stereo not drawn), for which the cytotoxicity at 70.5 h was -1.77%.

Consider `CCS(=O)(=O)N1CCC2(CC1)CN(c1ccsc1)C(=O)CO2`, for which the cytotoxicity at 70.5 h is -11.6%.

As to `O=C(O)c1cnc(N2CCCC2)nc1COc1ccccc1`, the cytotoxicity at 70.5 h was -2.71%.

Take `CC(C)c1noc(CCCC(=O)N2CCN(Cc3cccnc3)CC2)n1`: the cytotoxicity at 70.5 h is -13%.

As for `COCCNC(=O)N1CCN(C(=O)Cc2ccccc2F)CC1`, the cytotoxicity at 70.5 h is -8.11%.

On to `Cc1cnc(CNC(=O)CC2CCc3ccccc32)cn1` (stereo not drawn), for which the cytotoxicity at 70.5 h was -13.9%.

`CC(C)(O)CCc1cccc(C(=O)N[C@H](C(N)=O)c2ccccc2)c1`: the cytotoxicity at 70.5 h is -11%.

As for `CCOc1ccc(C#N)cc1NCC(=O)Nc1cc(F)ccc1F`, the cytotoxicity at 70.5 h came to 6.71%.

On to `O=C(O)c1ccc(S(=O)(=O)Nc2ccccc2CC(F)(F)F)c(F)c1`, for which the cytotoxicity at 70.5 h was -15.6%.

As to `COC(=O)c1ccc(C2SCC(=O)Nc3c2cnn3C2CCCC2)cc1` (stereo not drawn), the cytotoxicity at 70.5 h is -12.4%.

Take `O=C(NCC1(O)CCC1)c1c(O)cc(Cl)cc1Cl`: the cytotoxicity at 70.5 h is -1.39%.

As for `CC(C)(C)OC(=O)N1CCN(S(=O)(=O)CCCC#N)C2(CCCCC2)C1`, the cytotoxicity at 70.5 h is -4.48%.

For `O=S1(=O)CCC(S(=O)(=O)c2cccc(S(=O)(=O)N3CCCC3)c2)C1` (stereo not drawn), the cytotoxicity at 70.5 h is -12.1%.

As to `CC(C)NC(=O)c1sc2ccccc2c1[C@H]1CC[C@H](CN)CC1`, the cytotoxicity at 70.5 h was determined as 38.7%.

Take `CCN1CC(C(=O)N2CCC(Oc3ccccc3Cl)CC2)CC1=O` (stereo not drawn): the cytotoxicity at 70.5 h was 4.13%.

As to `Cc1nn(CC(=O)O)c2nccc(-c3ccc(F)cc3)c12`, the cytotoxicity at 70.5 h is -8.88%.

Regarding `CCN(Cc1ccoc1)C(=O)c1cc(S(N)(=O)=O)c(C)o1`, the cytotoxicity at 70.5 h is -5.31%.

As for `C=C(C)COc1cccc(CN(C)C(C)c2ccncn2)c1` (stereo not drawn), the cytotoxicity at 70.5 h was -4.71%.

For `COc1ccc(C)cc1C1(CNc2cncc(Cl)n2)CCOCC1`, the cytotoxicity at 70.5 h was -8.23%.

For `CCc1ncncc1C(=O)NCCNS(=O)(=O)c1ccc(C)cc1`, the cytotoxicity at 70.5 h is -1.77%.

For `O=C(Nc1cccc2c1CCCC2)c1cccnc1N1CCCNCC1`, the cytotoxicity at 70.5 h was -5.23%.

Regarding `CCOCCN(C)C(c1cccnc1)c1ccc(F)cc1F` (stereo not drawn), the cytotoxicity at 70.5 h is -3.04%.

Regarding `O=C(NCCCO)Nc1ccccc1`, the cytotoxicity at 70.5 h turned out to be 3.04%.

For `CCc1ccc2c(C3CN(S(C)(=O)=O)C3)ncn2c1`, the cytotoxicity at 70.5 h is 9.29%.

Take `O=C(CSc1ccc2c(c1)OCCO2)NS(=O)(=O)c1cccnc1`: the cytotoxicity at 70.5 h was -3.19%.

For the compound `O=C(Cc1cccc(O)c1)N1CCCC(O)(CN2CCOCC2)CC1` (stereo not drawn), the cytotoxicity at 70.5 h came to 0.936%.

In the case of `COc1cccn(Cc2nnc(-c3cccnc3)o2)c1=O`, the cytotoxicity at 70.5 h is -1.16%.

Turning to `CC(Cn1cccn1)NC(=O)NCc1cccnc1OC1CCCC1` (stereo not drawn), the cytotoxicity at 70.5 h was -12.8%.

`Cc1ncc(CNCC2CCCN2c2cccnn2)s1` (stereo not drawn): the cytotoxicity at 70.5 h is -19.7%.

For the compound `CC(C)c1nc(CNc2ccc(CNS(C)(=O)=O)cc2)cs1`, the cytotoxicity at 70.5 h was -8.66%.

For the compound `CCNC(=O)NCc1nn(CCN2CCCC2)c(=O)c2ccccc12`, the cytotoxicity at 70.5 h is -5.36%.

In the case of `CN(CCOc1ccc(Cl)cc1)Cc1ccc(S(=O)(=O)N(C)C)o1`, the cytotoxicity at 70.5 h is -2.41%.

Consider `COCCn1cnnc1CN(C)c1nc(N)ncc1C`, for which the cytotoxicity at 70.5 h is -14.6%.

As for `CN(C)C(=O)c1cnc2n1CCN(Cc1ccc3c(c1)OCO3)C2`, the cytotoxicity at 70.5 h was -7.97%.

Turning to `O=C(NCc1ccccc1)c1nnc2ccc(N3CCOCC3)cc2n1`, the cytotoxicity at 70.5 h is 4.86%.

Consider `CC(C)(C)OC(=O)NCCNC(=O)c1ccc2cc[nH]c2c1`, for which the cytotoxicity at 70.5 h turned out to be 0.498%.

For the compound `CCc1cc(=O)n(CC(=O)N2CCCC2)c(-c2ccccc2)n1`, the cytotoxicity at 70.5 h is -5.29%.

For `O=C(NCCn1cnc(C2CCCC2)cc1=O)NCc1cccs1`, the cytotoxicity at 70.5 h is -7.11%.

As to `Cc1cc(CNC(=O)NCCC(=O)N2CCCc3ccccc32)no1`, the cytotoxicity at 70.5 h turned out to be 7.7%.

For the compound `CCOC(C)c1nc(CN2CCC(NC(C)C)CC2)cs1` (stereo not drawn), the cytotoxicity at 70.5 h was -2.82%.

For `Cc1ccc(Sc2ccc(N3CCCC(C(=O)O)C3)nn2)cc1` (stereo not drawn), the cytotoxicity at 70.5 h turned out to be 0.439%.

As to `Cc1cc(NC(=O)CCn2nc(C)c3ccccc32)n(C(C)C)n1`, the cytotoxicity at 70.5 h was -18%.

As to `COc1ncccc1C(=O)N1CC[C@]2(C[C@@H](Oc3cccnc3)CO2)C1`, the cytotoxicity at 70.5 h worked out at 25.3%.

Turning to `Cn1c(-c2ccccc2Cl)nc2cc(C(=O)NCCOCCO)cnc21`, the cytotoxicity at 70.5 h is -6.61%.

`N#Cc1cc(NS(=O)(=O)c2ccc(C(=O)O)cc2F)ccc1F`: the cytotoxicity at 70.5 h is -1.12%.

As for `Cc1occc1CN(C)Cc1nc2c(cnn2C)c(=O)[nH]1`, the cytotoxicity at 70.5 h was -3.6%.

On to `CN(C)Cc1cc(=O)n2c(n1)CN(C(=O)Cc1cccs1)CCC2`, for which the cytotoxicity at 70.5 h amounted to 1.23%.

Turning to `Cc1ccc(CN2CCCC23CCN(S(=O)(=O)c2ccccc2)C3)o1` (stereo not drawn), the cytotoxicity at 70.5 h was -7.71%.

Regarding `Cc1ccc(C2CSCCN2C(=O)c2cnsn2)o1` (stereo not drawn), the cytotoxicity at 70.5 h was -10.7%.

As for `O=C(c1nc2sccn2c1-c1ncc[nH]1)N1CCCCC1`, the cytotoxicity at 70.5 h is -17.8%.

For `CCc1nccn1CC(=O)Nc1cccc(C(=O)OC)c1`, the cytotoxicity at 70.5 h is -5.31%.

On to `O=C(C1CCCC1)N1CCO[C@@H]2CNC[C@@H]21`, for which the cytotoxicity at 70.5 h stood at 12.2%.

Turning to `Cc1cc(CN2CCC(N(C)Cc3nnc(C4CC4)n3C)C2)on1` (stereo not drawn), the cytotoxicity at 70.5 h is -2.5%.

Turning to `CN1CCN(c2ccc(NS(=O)(=O)c3ccc(Br)s3)cc2C(=O)O)CC1`, the cytotoxicity at 70.5 h was determined as 24%.
